Test results from article PMC11167047 (Cell Death Discovery, 2024).

Experiments:
Test in all cases: kinome screen (33PanQinase)
Format in all cases: biochemical
CAMKK2 = target: T1, CAMKK2 (Homo sapiens, UniProt Q96RR4)
T1 construct: purchased Reaction Biology Europe GmbH (formerly ProQinase)
Protocol: (§1) The Kinome Screening was performed by Reaction Biology Europe GmbH (http://reactionbiology.com; Freiburg i. Br., Germany).

CDK2/CycA2 = target: T2, CDK2/CycA2 (Homo sapiens, UniProt P24941)
T2 construct: purchased Reaction Biology Europe GmbH (formerly ProQinase)
Protocol: as §1

MUSK = target: T3, MUSK (Homo sapiens, UniProt O15146)
T3 construct: purchased Reaction Biology Europe GmbH (formerly ProQinase)
T3 sequence (O15146 24-869): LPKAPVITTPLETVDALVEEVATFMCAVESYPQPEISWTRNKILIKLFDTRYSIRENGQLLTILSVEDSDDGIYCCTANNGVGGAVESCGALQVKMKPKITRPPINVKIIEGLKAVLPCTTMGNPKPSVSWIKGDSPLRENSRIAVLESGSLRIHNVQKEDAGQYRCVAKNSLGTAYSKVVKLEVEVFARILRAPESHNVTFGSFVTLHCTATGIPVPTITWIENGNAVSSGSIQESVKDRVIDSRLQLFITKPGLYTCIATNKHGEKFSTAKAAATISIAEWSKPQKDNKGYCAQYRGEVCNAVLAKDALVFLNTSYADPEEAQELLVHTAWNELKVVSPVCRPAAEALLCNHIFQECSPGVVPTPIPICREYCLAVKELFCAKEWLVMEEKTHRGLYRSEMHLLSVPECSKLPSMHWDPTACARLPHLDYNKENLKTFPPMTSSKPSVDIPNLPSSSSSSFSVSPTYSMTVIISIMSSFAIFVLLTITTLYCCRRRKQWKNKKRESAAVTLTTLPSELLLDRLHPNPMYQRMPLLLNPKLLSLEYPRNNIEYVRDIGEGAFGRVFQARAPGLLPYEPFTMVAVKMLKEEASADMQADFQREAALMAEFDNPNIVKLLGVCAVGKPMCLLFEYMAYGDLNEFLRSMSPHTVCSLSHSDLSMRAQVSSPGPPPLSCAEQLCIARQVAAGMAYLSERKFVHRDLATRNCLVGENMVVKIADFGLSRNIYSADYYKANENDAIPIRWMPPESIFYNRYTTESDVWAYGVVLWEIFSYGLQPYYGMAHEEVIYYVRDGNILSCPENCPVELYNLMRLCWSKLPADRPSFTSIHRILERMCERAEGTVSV
Protocol: as §1

PAK6 = target: T4, PAK6 (Homo sapiens, UniProt Q9NQU5)
T4 construct: purchased Reaction Biology Europe GmbH (formerly ProQinase)
Protocol: as §1

CK1Δ = target: T5, CK1Δ (Homo sapiens, UniProt P48730)
T5 construct: purchased Reaction Biology Europe GmbH (formerly ProQinase)
Protocol: as §1

ACVR1 = target: T6, ACVR1 (Homo sapiens, UniProt Q04771)
T6 construct: purchased Reaction Biology Europe GmbH (formerly ProQinase)
T6 sequence (Q04771 21-509): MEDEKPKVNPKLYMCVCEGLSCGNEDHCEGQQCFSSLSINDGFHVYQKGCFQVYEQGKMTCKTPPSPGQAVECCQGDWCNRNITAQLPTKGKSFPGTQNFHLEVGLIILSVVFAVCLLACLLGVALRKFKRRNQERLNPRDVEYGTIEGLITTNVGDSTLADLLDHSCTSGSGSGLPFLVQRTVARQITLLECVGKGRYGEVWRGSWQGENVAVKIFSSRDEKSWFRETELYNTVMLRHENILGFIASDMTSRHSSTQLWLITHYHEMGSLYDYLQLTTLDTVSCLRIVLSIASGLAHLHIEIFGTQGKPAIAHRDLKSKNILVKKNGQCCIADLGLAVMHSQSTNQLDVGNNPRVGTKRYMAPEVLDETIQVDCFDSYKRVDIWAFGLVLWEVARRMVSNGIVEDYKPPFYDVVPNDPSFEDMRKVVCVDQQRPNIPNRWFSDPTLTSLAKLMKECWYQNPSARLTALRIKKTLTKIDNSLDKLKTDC
Protocol: as §1

GRK3 = target: T7, GRK3 (Homo sapiens, UniProt P35626)
T7 construct: purchased Reaction Biology Europe GmbH (formerly ProQinase)
T7 sequence (P35626 1-688): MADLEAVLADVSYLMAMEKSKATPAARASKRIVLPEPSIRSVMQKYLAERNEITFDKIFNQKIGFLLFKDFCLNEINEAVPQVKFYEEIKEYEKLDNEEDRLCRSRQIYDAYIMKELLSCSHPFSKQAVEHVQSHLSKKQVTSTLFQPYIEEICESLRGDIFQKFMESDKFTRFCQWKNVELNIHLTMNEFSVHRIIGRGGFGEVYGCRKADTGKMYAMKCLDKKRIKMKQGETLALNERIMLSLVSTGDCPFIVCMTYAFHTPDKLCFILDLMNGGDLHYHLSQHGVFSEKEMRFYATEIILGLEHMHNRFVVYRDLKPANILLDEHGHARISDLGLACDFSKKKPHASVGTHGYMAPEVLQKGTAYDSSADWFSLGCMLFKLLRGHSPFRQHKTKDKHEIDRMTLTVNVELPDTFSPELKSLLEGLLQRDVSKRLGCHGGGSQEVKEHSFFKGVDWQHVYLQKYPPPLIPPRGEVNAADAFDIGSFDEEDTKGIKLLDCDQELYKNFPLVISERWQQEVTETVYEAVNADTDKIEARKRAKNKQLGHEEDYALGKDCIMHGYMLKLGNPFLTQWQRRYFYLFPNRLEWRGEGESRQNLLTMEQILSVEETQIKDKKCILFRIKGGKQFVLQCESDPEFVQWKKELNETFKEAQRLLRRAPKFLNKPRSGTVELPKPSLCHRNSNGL
Protocol: as §1

DAPK2 = target: T8, DAPK2 (Homo sapiens, UniProt Q9UIK4)
T8 construct: purchased Reaction Biology Europe GmbH (formerly ProQinase)
Protocol: as §1

MARK1 = target: T9, MARK1 (Homo sapiens, UniProt Q9P0L2)
T9 construct: purchased Reaction Biology Europe GmbH (formerly ProQinase)
Protocol: as §1

T5 sequence (P48730 whole entry, stated change not applied): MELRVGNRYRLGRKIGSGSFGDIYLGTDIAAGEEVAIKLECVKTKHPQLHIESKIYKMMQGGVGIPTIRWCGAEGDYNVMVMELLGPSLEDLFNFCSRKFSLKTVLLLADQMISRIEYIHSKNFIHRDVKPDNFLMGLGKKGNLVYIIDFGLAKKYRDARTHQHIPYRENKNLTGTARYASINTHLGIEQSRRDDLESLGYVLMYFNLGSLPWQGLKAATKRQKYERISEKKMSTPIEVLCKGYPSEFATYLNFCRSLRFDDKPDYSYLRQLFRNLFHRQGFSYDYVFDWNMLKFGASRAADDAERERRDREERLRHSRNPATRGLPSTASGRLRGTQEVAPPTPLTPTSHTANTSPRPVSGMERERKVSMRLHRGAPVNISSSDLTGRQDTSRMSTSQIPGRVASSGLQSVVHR
T4 sequence (Q9NQU5 whole entry): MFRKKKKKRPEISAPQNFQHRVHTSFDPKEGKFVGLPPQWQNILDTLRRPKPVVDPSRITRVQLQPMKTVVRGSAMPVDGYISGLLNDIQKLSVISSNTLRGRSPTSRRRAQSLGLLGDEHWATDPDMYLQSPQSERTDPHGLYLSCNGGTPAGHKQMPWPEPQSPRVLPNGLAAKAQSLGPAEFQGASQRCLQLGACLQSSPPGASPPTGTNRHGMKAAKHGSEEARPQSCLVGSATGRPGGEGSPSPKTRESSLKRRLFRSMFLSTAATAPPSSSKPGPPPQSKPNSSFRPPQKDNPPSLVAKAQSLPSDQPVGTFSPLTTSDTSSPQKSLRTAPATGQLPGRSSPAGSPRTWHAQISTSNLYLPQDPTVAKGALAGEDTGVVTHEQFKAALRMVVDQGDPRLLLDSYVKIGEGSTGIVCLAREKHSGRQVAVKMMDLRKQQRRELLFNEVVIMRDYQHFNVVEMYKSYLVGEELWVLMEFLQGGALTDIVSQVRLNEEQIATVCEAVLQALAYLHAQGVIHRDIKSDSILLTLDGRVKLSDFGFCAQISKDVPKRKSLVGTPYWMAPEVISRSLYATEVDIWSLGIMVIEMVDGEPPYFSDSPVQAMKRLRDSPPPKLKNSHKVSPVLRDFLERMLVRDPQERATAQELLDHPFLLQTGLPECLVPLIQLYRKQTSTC
T1 sequence (Q96RR4 whole entry): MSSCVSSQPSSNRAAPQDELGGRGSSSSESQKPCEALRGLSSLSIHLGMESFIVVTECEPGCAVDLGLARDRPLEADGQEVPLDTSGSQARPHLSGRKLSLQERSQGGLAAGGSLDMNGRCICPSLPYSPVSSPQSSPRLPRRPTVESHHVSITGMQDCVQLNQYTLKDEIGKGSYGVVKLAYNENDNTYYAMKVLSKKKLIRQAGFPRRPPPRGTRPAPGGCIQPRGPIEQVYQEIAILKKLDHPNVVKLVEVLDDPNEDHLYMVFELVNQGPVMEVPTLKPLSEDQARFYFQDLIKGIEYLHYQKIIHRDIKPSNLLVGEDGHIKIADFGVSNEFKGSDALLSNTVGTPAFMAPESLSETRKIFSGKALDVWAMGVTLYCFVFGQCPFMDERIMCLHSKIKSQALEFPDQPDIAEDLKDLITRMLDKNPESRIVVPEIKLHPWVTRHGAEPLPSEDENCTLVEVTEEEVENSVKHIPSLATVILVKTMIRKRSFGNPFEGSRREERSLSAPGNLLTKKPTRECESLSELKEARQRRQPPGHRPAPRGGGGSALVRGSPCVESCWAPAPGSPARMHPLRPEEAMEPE
T9 sequence (Q9P0L2 whole entry): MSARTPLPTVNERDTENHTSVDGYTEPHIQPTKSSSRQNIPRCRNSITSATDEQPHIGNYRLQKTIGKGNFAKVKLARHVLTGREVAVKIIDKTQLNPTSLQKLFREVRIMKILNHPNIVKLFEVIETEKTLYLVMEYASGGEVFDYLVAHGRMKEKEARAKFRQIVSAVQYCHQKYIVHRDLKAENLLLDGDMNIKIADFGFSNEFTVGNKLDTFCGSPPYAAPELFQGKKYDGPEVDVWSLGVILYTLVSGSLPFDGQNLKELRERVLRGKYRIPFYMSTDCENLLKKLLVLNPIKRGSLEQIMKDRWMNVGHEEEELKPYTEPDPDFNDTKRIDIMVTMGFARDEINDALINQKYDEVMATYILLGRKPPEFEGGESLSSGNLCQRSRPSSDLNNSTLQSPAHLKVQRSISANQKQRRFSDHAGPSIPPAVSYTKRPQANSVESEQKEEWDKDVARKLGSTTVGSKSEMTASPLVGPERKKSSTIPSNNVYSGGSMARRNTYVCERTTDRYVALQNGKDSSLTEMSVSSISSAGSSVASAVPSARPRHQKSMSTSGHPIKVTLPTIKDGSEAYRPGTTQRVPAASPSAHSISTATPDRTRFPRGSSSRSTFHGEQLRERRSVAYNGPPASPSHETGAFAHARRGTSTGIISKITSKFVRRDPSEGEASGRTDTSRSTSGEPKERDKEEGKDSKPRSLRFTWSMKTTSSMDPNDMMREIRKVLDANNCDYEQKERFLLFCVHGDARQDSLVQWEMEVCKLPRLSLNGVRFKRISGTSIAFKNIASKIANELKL
T8 sequence (Q9UIK4 whole entry): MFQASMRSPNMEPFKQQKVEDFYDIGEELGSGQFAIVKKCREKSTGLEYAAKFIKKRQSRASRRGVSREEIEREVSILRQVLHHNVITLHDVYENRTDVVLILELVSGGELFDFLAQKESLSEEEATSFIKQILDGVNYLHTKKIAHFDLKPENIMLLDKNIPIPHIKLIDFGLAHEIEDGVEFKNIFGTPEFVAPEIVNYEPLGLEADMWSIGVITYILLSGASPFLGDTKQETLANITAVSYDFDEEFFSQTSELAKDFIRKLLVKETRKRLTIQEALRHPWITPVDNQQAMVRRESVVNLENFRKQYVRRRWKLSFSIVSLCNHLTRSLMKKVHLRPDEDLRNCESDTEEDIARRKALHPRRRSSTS

| Structure (SMILES) | residual kinase activity (CAMKK2; 0.3 µM) | residual kinase activity (CDK2/CycA2; 0.3 µM) | residual kinase activity (MUSK; 0.3 µM) | residual kinase activity (PAK6; 0.3 µM) | residual kinase activity (CK1Δ; 0.3 µM) | residual kinase activity (ACVR1; 0.3 µM) | residual kinase activity (GRK3; 0.3 µM) | residual kinase activity (DAPK2; 0.3 µM) | residual kinase activity (MARK1; 0.3 µM) | other results |
| --- | --- | --- | --- | --- | --- | --- | --- | --- | --- | --- |
| COc1ccnc2[nH]cc(-c3cc(N)nc(N)c3)c12 [meriolin 16] | 55 % of control | 2 % of control | 70 % of control | 76 % of control | 17 % of control | 72 % of control | 107 % of control | 78 % of control | 101 % of control | residual kinase activity (CAMKK2; 0.03 µM): 92 % of control; residual kinase activity (CDK2/CycA2; 0.03 µM): 18 % of control; residual kinase activity (MUSK; 0.03 µM): 88 % of control; residual kinase activity (PAK6; 0.03 µM): 88 % of control; residual kinase activity (CK1Δ; 0.03 µM): 77 % of control; residual kinase activity (ACVR1; 0.03 µM): 89 % of control; residual kinase activity (GRK3; 0.03 µM): 111 % of control; residual kinase activity (DAPK2; 0.03 µM): 106 % of control; residual kinase activity (MARK1; 0.03 µM): 121 % of control |
| c1ccc(CNc2cc(-c3c[nH]c4ncccc34)ccn2)cc1 [meriolin 36] | 9 % of control | 1 % of control | 28 % of control | 54 % of control | 43 % of control | 24 % of control | 98 % of control | 118 % of control | 90 % of control | residual kinase activity (CAMKK2; 3 µM): 1 % of control; residual kinase activity (CDK2/CycA2; 3 µM): 2 % of control; residual kinase activity (MUSK; 3 µM): 5 % of control; residual kinase activity (PAK6; 3 µM): 14 % of control; residual kinase activity (CK1Δ; 3 µM): 9 % of control; residual kinase activity (ACVR1; 3 µM): 1 % of control; residual kinase activity (GRK3; 3 µM): 74 % of control; residual kinase activity (DAPK2; 3 µM): 67 % of control; residual kinase activity (MARK1; 3 µM): 43 % of control |
